Reference: US9505824B2, “Antigen peptide derived from the sequence of epidermal growth factor receptor having T790M point mutation” (Kanagawa Prefectural Hospital Organization, priority 2012, dated 2016)

Assays:
HLA-A2 molecule [1] = assay: HLA class I stabilization assay with TAP2-deficient RMA-S/A2 cells; assay type: binding; conditions: peptide 10 μg/ml
HLA-A2 molecule [2] = biological target: T1, HLA-A2 molecule (Homo sapiens, UniProt P04439, D140Y/D185E/D98H/E176V/E277Q/G131W/G231S/I119V/I121R/I166T/I218V/L300P/L318F/N151K/N90K/P208A/P217A/Q86G/Q94H/R138H/R169H/T345S); assay: HLA class I stabilization assay with TAP2-deficient T2 cells; assay type: binding; conditions: T2 cells expressing HLA-A2
T1 construct: TAP2-deficient T2 cells expressing HLA-A2; host or cells: T2 cells (TAP2-deficient, HLA-A2+)
Procedure: FIG. 6. HLA-A2-binding capability of EGFR-T790M-derived peptides. The binding of selected peptides to an HLA-A2 molecule was evaluated by HLA class I stabilization assay with TAP2-deficient T2 cells expressing HLA-A2.
The binding of predicted peptides to an HLA-A2 molecule was evaluated by HLA class I stabilization assay with TAP2-deficient T2 cells (HLA-A2+) (RIKEN, Saitama, Japan). After overnight culture in RPMI 1640 medium at 26° C., T2 cells were cultured for 3 hours at 26° C. in the presence of each synthetic peptide. The cells were cultured for 2.5 hours at 37° C., and then stained with anti-HLA-A2 antibody (BB7.2) (MBL, Nagoya, Japan), followed by analysis with flow cytometry. The binding capability of each peptide to the HLA-A2 molecule was evaluated by comparing the mean fluorescence intensity (MFI) of HLA-A2 expression of the peptide with those of the positive and the negative controls. The HLA-A2-restricted HIV peptide and CMV peptide were used as positive controls, and H-2K^b-restricted OVA peptide was used as a negative control.

[3] = test system: PBMCs from HLA-A2+ healthy donors; assay: Immunogenicity in PBMCs of HLA-A2+ healthy donors, IFN-γ ELISPOT against peptide-pulsed T2 cells; assay type: cell-based, human; conditions: PBMCs from 6 HLA-A2+ healthy donors, repeated stimulation with peptide 10 μg/ml
Text: FIG. 1. Immunogenicity of T790M-5 and T790M-7 peptides in peripheral blood mononuclear cells (PBMCs) from normal donors. Immunogenicity of T790M-5 and T790M-7 peptides was examined with PBMCs from 6 different HLA-A2^+ healthy donors.

Sequence | HLA binding capability (%) (MFI increase of HLA-A2 expression) (HLA-A2 molecule [1]) | binding to HLA-A2 (in words) (HLA-A2 molecule [2]) | healthy donors in whom T cell lines secreting IFN-γ in response to the peptide were established [3]
LTSTVQLIMQL [Peptide T790M-6] | 0 |  | 
IMQLMPFGCL [Peptide T790M-4] | 0 |  | 
LIMQLMPFGC [Peptide T790M-3] | 0 | confirmed to bind to HLA-A2 | 
IMQLMPFGCLL [Peptide T790M-8] | 69.3 |  | none of the 6 healthy donors
IMQLMPFGL [Peptide T790M-E] |  | higher binding | 
IMQLMPFGV [Peptide T790M-D] |  | higher binding | 
QLIMQLMPFG [Peptide T790M-2] | 0 |  | 
VQLIMQLMPF [Peptide T790M-1] | 0 |  | 
